Laboratory results: PubChem BioAssay (NCI)
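Exposure lasted 48 hours, with cells grown in 96-well plates and compounds tested at five concentrations. Definition used: TGI = concentration required for complete inhibition of growth.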

What was measured:
Experiment in all cases: DTP human tumour cell line panel, 48 h
[1] = test system: RXF 393 renal
[2] = test system: HCT-15 colon
[3] = test system: COLO 205 colon
[4] = test system: IGROV1 ovarian
[5] = test system: HOP-92 NSCLC
[6] = test system: OVCAR-4 ovarian
[7] = test system: SN12C renal
[8] = test system: SK-OV-3 ovarian
[9] = test system: RPMI-8226 leukemia
[10] = test system: HT29 colon
[11] = test system: LOX IMVI melanoma
[12] = test system: HCT-116 colon
[13] = test system: SK-MEL-2 melanoma
[14] = test system: MDA-N
[15] = test system: SF-295 CNS
[16] = test system: DU-145 prostate
[17] = test system: MOLT-4 leukemia
[18] = test system: A549 NSCLC
[19] = test system: HL-60(TB) leukemia
[20] = test system: ACHN renal
[21] = test system: HS 578T breast
[22] = test system: SF-268 CNS
[23] = test system: NCI-H522 lung
[24] = test system: SR leukemia
[25] = test system: 786-0 renal
[26] = test system: SK-MEL-28 melanoma
[27] = test system: PC-3 prostate
[28] = test system: NCI-H226 lung
[29] = test system: TK-10 renal
[30] = test system: OVCAR-5 ovarian
[31] = test system: UO-31 renal
[32] = test system: MALME-3M melanoma
[33] = test system: U251 CNS
[34] = test system: K-562 leukemia
[35] = test system: CAKI-1 renal
[36] = test system: EKVX NSCLC
[37] = test system: KM12 colon
[38] = test system: MCF7 breast
[39] = test system: OVCAR-3 ovarian
[40] = test system: MDA-MB-435
[41] = test system: HOP-62 NSCLC
[42] = test system: SNB-75 CNS
[43] = test system: UACC-62 melanoma
[44] = test system: NCI/ADR-RES ovarian
[45] = test system: SNB-19 CNS
[46] = test system: OVCAR-8 ovarian
[47] = test system: UACC-257 melanoma
[48] = test system: NCI-H23 lung
[49] = test system: M14 melanoma
[50] = test system: MDA-MB-231 breast
[51] = test system: HCC-2998 colon
[52] = test system: A498 renal
[53] = test system: SW-620 colon

## C[n+]1c(-c2ccccc2)cc2/c(=C\c3ccccc3)c3ccccc3n21
[1]
  TGI: 4.07 µM
[2]
  TGI: 11.5 µM
[3]
  TGI: 1.8 µM
[4]
  TGI: 2.64 µM
[5]
  TGI: 4.93 µM
[6]
  TGI: 17.2 µM
[7]
  TGI: 3.32 µM
[8]
  TGI: 17.4 µM
[9]
  TGI: > 100 µM
[10]
  TGI: 3.22 µM
[11]
  TGI: 2.88 µM
[12]
  TGI: 4.91 µM
[13]
  TGI: 2.26 µM
[14]
  TGI: 3.42 µM
[15]
  TGI: 76 µM
[16]
  TGI: 10.6 µM
[17]
  TGI: 7.78 µM
[18]
  TGI: > 36.3 µM
[19]
  TGI: 0.302 µM
[20]
  TGI: 11.8 µM
[21]
  TGI: 0.576 µM
[22]
  TGI: 2.92 µM
[23]
  TGI: 2.01 µM
[24]
  TGI: > 21.4 µM
[25]
  TGI: 2.77 µM
[26]
  TGI: 2.73 µM
[27]
  TGI: 3.69 µM
[28]
  TGI: 2.01 µM
[29]
  TGI: 14.2 µM
[30]
  TGI: 13.4 µM
[31]
  TGI: 7.81 µM
[32]
  TGI: 2.93 µM
[33]
  TGI: 1.67 µM
[34]
  TGI: > 100 µM
[35]
  TGI: 11.4 µM
[36]
  TGI: 9.64 µM
[37]
  TGI: 2.18 µM
[38]
  TGI: > 32.2 µM
[39]
  TGI: 3.04 µM
[40]
  TGI: 2.45 µM
[41]
  TGI: 6.9 µM
[42]
  TGI: 2.05 µM
[43]
  TGI: 3.24 µM
[44]
  TGI: 71.1 µM
[45]
  TGI: 24 µM
[46]
  TGI: 4.19 µM
[47]
  TGI: 3.98 µM
[48]
  TGI: 7.2 µM
[49]
  TGI: 4.19 µM
[50]
  TGI: 3.55 µM
[51]
  TGI: 14.2 µM
[52]
  TGI: 23.1 µM
[53]
  TGI: 3.47 µM
